From patent publication US20170042193A1, “Pet Food Compositions Having Antimicrobial Activity” (priority 2010, published 2017)
Read-outs that look alike come from different tables or passages of the source. Each block holds one compound with its values, some of them ahead of it.

Columns and labels:
Format in all cases: cell-based
[1] = test system: Salmonella (S. aarhus, S. muenster E1 & S. worthington); conditions: for inhibition of Salmonella, clear zone around the kibbles: coated kibbles, overnight at 30° C.; for Zone of Inhibition-Diameter, Mean / Zone of Inhibition-Diameter, REP I Plate 1 / Zone of Inhibition-Diameter, REP I Plate 2 / Zone of Inhibition-Diameter, REP II Plate 1 / Zone of Inhibition-Diameter, REP II Plate 2 / Zone of Inhibition-Diameter, REP III Plate 1 / Zone of Inhibition-Diameter, REP III Plate 2: kibble coated
Experimental: The kibble diffusion test has similar principles as the disk diffusion method. […] […] Efficacy of the AMI was validated by measuring how closely the Salmonella cultures grew with respect to the saturated kibbles.
Commercial canine and feline adult pet food compositions in the form of kibbles were coated with potential AMIs. […] After incubation overnight at 30° C., plates were analyzed for presence of clear zones around the kibbles.

[2] = test system: Salmonella (S. aarhus, S. muenster E1 and S. worthington); design: key to Salmonella growth or inhibition (MIC test): −: negative sign means inhibition; +: positive sign denotes growth
Experimental: The minimum inhibitory concentration (MIC) of an antimicrobial ingredient is defined as the maximum dilution of the product that will still inhibit the growth of Salmonella. Serial dilutions (0-3%, except for oregano 0-0.3%) were made of the AMI in bacterial growth media and poured in test tubes. The test organisms (S. aarhus, S. muenster E1 and S. worthington) were then added to the dilutions of the AMI ingredients to a final concentration of 10^6 or 10^3 cfu/g, incubated overnight at 30° C., and scored for growth by turbidity or plate counts.
Minimum Inhibitory Concentration was conducted for 10^3 and 10^6 cfu/g Salmonella. Results reported as negative sign means inhibition, while positive sign denotes growth.

[3] = test system: Salmonella (S. aarhus, S. muenster E1 & S. worthington)
Description: This test is typically used for antibiotic sensitivity in bacteria and was adapted to measure Salmonella growth suppression by ingredients with potential antimicrobial (AMI) activity. Discs of filter paper, approximately 5 mm in diameter, were soaked in an AMI at 1%, 2%, and 3%, except for oregano, which was soaked at 0.1%, 0.2% and 0.4% solution and placed on a Petri dish with standard methods agar with tetraphenyltetrazolium (TTC) that has been smeared with a standardized suspension of Salmonella (S. aarhus, S. muenster E1 & S. worthington). Efficacy of the AMI was validated by measuring how closely the Salmonella cultures grew with respect to the saturated filter paper.
Ingredients were screened for antimicrobial activity using the Disc Diffusion Test. Solutions of 1%, 2%, and 3% were prepared for each of these ingredients, except for oregano, which was prepared at 0.1%, 0.2%, and 0.4%. Soaking of the disks, placing them on a Standard Methods agar plate with TTC smeared with Salmonella and overnight incubation were done as discussed above. Efficacy of these ingredients was determined by measuring the clear zones (mm) around the disks (Table 2).

Structure (SMILES): CCC(=O)[O-].CCC(=O)[O-].[Ca+2] [Ca propionate liquid, Ca propionate]
inhibition of Salmonella, clear zone around the kibbles [1]: inhibited Salmonella
Zone of Inhibition-Diameter, Mean ([1]; 1% solution): 9 mm
Zone of Inhibition-Diameter, REP I Plate 1 ([1]; 1% solution): 5 mm
Zone of Inhibition-Diameter, REP I Plate 2 ([1]; 1% solution): 16 mm
Zone of Inhibition-Diameter, REP II Plate 1 ([1]; 1% solution): 4 mm
Zone of Inhibition-Diameter, REP II Plate 2 ([1]; 1% solution): 9 mm
Zone of Inhibition-Diameter, REP III Plate 1 ([1]; 1% solution): 9 mm
Zone of Inhibition-Diameter, REP III Plate 2 ([1]; 1% solution): 9 mm
Zone of Inhibition-Diameter, Mean ([1]; 2% solution): 17 mm
Zone of Inhibition-Diameter, REP I Plate 1 ([1]; 2% solution): 19 mm
Zone of Inhibition-Diameter, REP I Plate 2 ([1]; 2% solution): 14 mm
Zone of Inhibition-Diameter, REP II Plate 1 ([1]; 2% solution): 18 mm
Zone of Inhibition-Diameter, REP II Plate 2 ([1]; 2% solution): 19 mm
Zone of Inhibition-Diameter, REP III Plate 1 ([1]; 2% solution): 16 mm
Zone of Inhibition-Diameter, REP III Plate 2 ([1]; 2% solution): 14 mm
Zone of Inhibition-Diameter, Mean ([1]; 3% solution): 21 mm
Zone of Inhibition-Diameter, REP I Plate 1 ([1]; 3% solution): 20 mm
Zone of Inhibition-Diameter, REP I Plate 2 ([1]; 3% solution): 15 mm
Zone of Inhibition-Diameter, REP II Plate 1 ([1]; 3% solution): 19 mm
Zone of Inhibition-Diameter, REP II Plate 2 ([1]; 3% solution): 25 mm
Zone of Inhibition-Diameter, REP III Plate 1 ([1]; 3% solution): 24 mm
Zone of Inhibition-Diameter, REP III Plate 2 ([1]; 3% solution): 25 mm

Salmonella growth or inhibition (MIC test) ([2]; 10^3 cfu/g Salmonella, antimicrobial level 0.03%): +
Salmonella growth or inhibition (MIC test) ([2]; 10^3 cfu/g Salmonella, antimicrobial level 0.15%): +
Salmonella growth or inhibition (MIC test) ([2]; 10^3 cfu/g Salmonella, antimicrobial level 0.3%): +
Salmonella growth or inhibition (MIC test) ([2]; 10^3 cfu/g Salmonella, antimicrobial level 0.9%): −
Salmonella growth or inhibition (MIC test) ([2]; 10^3 cfu/g Salmonella, antimicrobial level 1.5%): −
Salmonella growth or inhibition (MIC test) ([2]; 10^3 cfu/g Salmonella, antimicrobial level 2.1%): −
Salmonella growth or inhibition (MIC test) ([2]; 10^3 cfu/g Salmonella, antimicrobial level 3%): −
Salmonella growth or inhibition (MIC test) ([2]; 10^3 cfu/g Salmonella, antimicrobial level […]): −
Salmonella growth or inhibition (MIC test) ([2]; 10^6 cfu/g Salmonella, antimicrobial level 0.03%): +
Salmonella growth or inhibition (MIC test) ([2]; 10^6 cfu/g Salmonella, antimicrobial level 0.15%): +
Salmonella growth or inhibition (MIC test) ([2]; 10^6 cfu/g Salmonella, antimicrobial level 0.3%): +
Salmonella growth or inhibition (MIC test) ([2]; 10^6 cfu/g Salmonella, antimicrobial level 0.9%): −
Salmonella growth or inhibition (MIC test) ([2]; 10^6 cfu/g Salmonella, antimicrobial level 1.5%): −
Salmonella growth or inhibition (MIC test) ([2]; 10^6 cfu/g Salmonella, antimicrobial level 2.1%): −
Salmonella growth or inhibition (MIC test) ([2]; 10^6 cfu/g Salmonella, antimicrobial level 3%): −
Salmonella growth or inhibition (MIC test) ([2]; 10^6 cfu/g Salmonella, antimicrobial level […]): −
Structure (SMILES): O=P(O)(O)O [Inorganic Acid (Phosphoric acid), Phosphoric Acid]
inhibition of Salmonella, clear zone around the kibbles [1]: inhibited Salmonella
Zone of Inhibition-Diameter, Mean ([1]; 3%): 8 mm
Zone of Inhibition-Diameter, REP I Plate 1 ([1]; 3%): 9 mm
Zone of Inhibition-Diameter, REP I Plate 2 ([1]; 3%): 7 mm
Zone of Inhibition-Diameter, REP II Plate 1 ([1]; 3%): 7 mm
Zone of Inhibition-Diameter, REP II Plate 2 ([1]; 3%): 9 mm
Zone of Inhibition-Diameter, REP III Plate 1 ([1]; 3%): 9 mm
Zone of Inhibition-Diameter, REP III Plate 2 ([1]; 3%): 7 mm
clear zone around disk, Partial ([3]; R 1 (*3 replicates)): 9.33 mm
clear zone around disk, Total ([3]; R 1 (*3 replicates)): 16.67 mm
clear zone around disk, Partial ([3]; R 2): 14.33 mm
clear zone around disk, Total ([3]; R 2): 24.0 mm
clear zone around disk, Partial ([3]; R 3): 21.0 mm
clear zone around disk, Total ([3]; R 3): 28.33 mm
Antimicrobial activity against Salmonella, decreasing order ([3]; order printed: Phosphoric acid>Phenols, pH 4.25-4.85>Oleoresin Oregano>92% Sodium Lactate and 6% Sodium Diacetate>Phenols, pH 4.8-6.0): Antimicrobial activity against Salmonella was observed
